# Laboratory results reported in patent publication US20110039762A1, “TARGETED ANTIMICROBIAL MOIETIES” (C3 JIAN, INC., priority 2009, published 2011).
# “Also recorded” adds a separate entry of the source. Ends that are not written are not given here.
# Assays:
# [1] = test system: T. rubrum; assay: MIC (broth microdilution); format: cell-based, Trichophyton rubrum
# Procedure: (§1) Typically, the in vitro antimicrobial activity of antimicrobial agents is tested using standard NCCLS bacterial inhibition assays, or MIC tests (see, National Committee on Clinical Laboratory Standards “Performance Standards for Antimicrobial Susceptibility Testing,” NCCLS Document M100-S5 Vol. 14, No. 16, December 1994; “Methods for dilution antimicrobial susceptibility test for bacteria that grow aerobically-Third Edition,” Approved Standard M7-A3, National Committee for Clinical Standards, Villanova, Pa.).
# (§2) Briefly, ˜1×10^5 cfu/mL bacteria were diluted in TH (S. mutans), or Mueller-Hinton (MH) broth (all other organisms) and distributed to 96-well plates. Serially-diluted (2-fold) peptides were then added and the plates incubated at 37° C. for 18-24 h. […] All experiments were conducted 10 times.
# [2] = test system: B. subtilis; assay: Kill or inhibit growth/proliferation; morphology, biofilm and growth disruption (Tables 5, 6); format: cell-based, Bacillus subtilis; set-up: key: A: Peptide aggregates; B: Less hyphal formation; Clumps; Diffuse clumps and small polyps; F: Diffuse growth; H: Thin; I: Growth inhibition; Microcolony formation; Rippled; Small polyps; Thick; W: Halo formation on top, microlonies on bottom; further: test concentration or dose not given here
# [3] = test system: microorganisms; assay: Peptides having multiple activities (targeting/binding, antimicrobial, growth or phenotype altering)
# From the text: In certain embodiments, peptides described herein can have multiple activities. Thus for example, a peptide can have both binding/targeting activity and antimicrobial activity. Such peptides can be used, e.g., in a chimeric construct, for any or all of these properties. Thus, for example, a peptide designated “B” in Table 8 can be used as a targeting peptide. If it is also designated G or M it can also be used for antimicrobial activity.
# [4] = test system: B. subtilis; assay: MIC (broth microdilution); format: cell-based, Bacillus subtilis
# Procedure: as §1, §2
# [5] = test system: microorganisms (e.g., bacteria, yeasts, fungi); assay: Targeting peptide binding to target microorganisms (Table 3); conditions: preferably 1x PBS; for Target(s): microorganism(s) the targeting peptide binds; for Target(s) (microorganisms bound by the targeting peptide): peptide binding in aqueous buffers varied by peptide solubility
# [6] = test system: S. epidermidis; assay: Kill or inhibit growth/proliferation; morphology, biofilm and growth disruption (Tables 5, 6); format: cell-based, Staphylococcus epidermidis; set-up: key: A: Peptide aggregates; B: Less hyphal formation; Clumps; Diffuse clumps and small polyps; F: Diffuse growth; H: Thin; I: Growth inhibition; Microcolony formation; Rippled; Small polyps; Thick; W: Halo formation on top, microlonies on bottom; further: test concentration or dose not given here
# [7] = test system: S. epidermidis; format: cell-based, Staphylococcus epidermidis; conditions: S. epidermidis
# Procedure: as §1, §2
# [8] = test system: F. nucleatum; assay: Kill or inhibit growth/proliferation; morphology, biofilm and growth disruption (Tables 5, 6); format: cell-based, Fusobacterium nucleatum; set-up: key: A: Peptide aggregates; B: Less hyphal formation; Clumps; Diffuse clumps and small polyps; F: Diffuse growth; H: Thin; I: Growth inhibition; Microcolony formation; Rippled; Small polyps; Thick; W: Halo formation on top, microlonies on bottom; further: test concentration or dose not given here
# [9] = test system: S. mutans; assay: as above; format: cell-based, Streptococcus mutans; set-up: key: A: Peptide aggregates; B: Less hyphal formation; Clumps; Diffuse clumps and small polyps; F: Diffuse growth; H: Thin; I: Growth inhibition; Microcolony formation; Rippled; Small polyps; Thick; W: Halo formation on top, microlonies on bottom
# [10] = test system: P. gingivalis; assay: as above; format: cell-based, Porphyromonas gingivalis; set-up: key: A: Peptide aggregates; B: Less hyphal formation; Clumps; Diffuse clumps and small polyps; F: Diffuse growth; H: Thin; I: Growth inhibition; Microcolony formation; Rippled; Small polyps; Thick; W: Halo formation on top, microlonies on bottom; further: test concentration or dose not given here
# [11] = test system: P. aeruginosa; assay: as above; format: cell-based, Pseudomonas aeruginosa; set-up: key: A: Peptide aggregates; B: Less hyphal formation; Clumps; Diffuse clumps and small polyps; F: Diffuse growth; H: Thin; I: Growth inhibition; Microcolony formation; Rippled; Small polyps; Thick; W: Halo formation on top, microlonies on bottom; further: test concentration or dose not given here
# [12] = test system: MRSA; assay: as above; format: cell-based, Methicillin-resistant Staphylococcus aureus; set-up: key: A: Peptide aggregates; B: Less hyphal formation; Clumps; Diffuse clumps and small polyps; F: Diffuse growth; H: Thin; I: Growth inhibition; Microcolony formation; Rippled; Small polyps; Thick; W: Halo formation on top, microlonies on bottom
# [13] = test system: A. niger; assay: MIC (broth microdilution); format: cell-based, Aspergillus niger
# Procedure: as §1, §2
# [14] = test system: MRSA; assay: MIC (broth microdilution); format: cell-based, Methicillin-resistant Staphylococcus aureus
# Procedure: as §1, §2
# [15] = test system: S. mutans; format: cell-based, Streptococcus mutans; conditions: S. mutans; on Organism, effect (morphology, biofilm and growth disruption): test concentration or dose not given here
# Procedure: as §1, §2
# [16] = test system: E. faecalis; assay: Kill or inhibit growth/proliferation; morphology, biofilm and growth disruption (Tables 5, 6); format: cell-based, Enterococcus faecalis; set-up: key: A: Peptide aggregates; B: Less hyphal formation; Clumps; Diffuse clumps and small polyps; F: Diffuse growth; H: Thin; I: Growth inhibition; Microcolony formation; Rippled; Small polyps; Thick; W: Halo formation on top, microlonies on bottom; further: test concentration or dose not given here
# [17] = binding in aqueous buffers depending on peptide solubility
# Wherever Organism, effect is given: test concentration or dose not given here.
Substance,MIC [1],"Organism, effect [2]",Activities [3],MIC [4],"Target(s) [5, 17]","Organism, effect [6]",MIC [7],Target(s) (microorganisms bound by the targeting peptide) [5],"Organism, effect (morphology, biofilm and growth disruption) [8]","Organism, effect (morphology, biofilm and growth disruption) [9]","Organism, effect (morphology, biofilm and growth disruption) [10]","Organism, effect [11]","Organism, effect [12]",MIC [13],MIC [14],MIC [15],"Organism, effect [16]",Target(s) ([5]; peptide binding conducted in aqueous buffers varied by peptide solubility)
MIRIRSPTKKKLNRNSISDWKSNTSGRFFY [PF-283],"T. rubrum, 50 μM",B. subtilis (H),G B M,"B. subtilis, 50 μM",B. subtilis; also recorded: B. fragilis; also recorded: C. difficile,S. epidermidis (H),"S. epidermidis, 50 μM",,,,,,,,,,,
PF-C075: peptide having multiple activities (KALVISVFAIVFSIIFVKFFYWRDKK; Peptide with targeting and/or antimicrobial activity),,,G B,,,,,A. naeslundii; also recorded: F. nucleatum; also recorded: P. gingivalis; also recorded: S. mutans; also recorded: T. denticola,F. nucleatum (T),S. mutans (F),P. gingivalis (R),,,,,,,
PF-C084: peptide having multiple activities (FFSVIFLFGLNYLICNSPLFNILR; Peptide with targeting and/or antimicrobial activity),,,G B,,,,,A. naeslundii; also recorded: F. nucleatum; also recorded: P. gingivalis; also recorded: S. mutans,F. nucleatum (T),S. mutans (F),P. gingivalis (R),,,,,,,
PF-C088: peptide having multiple activities (DIANNILNSVSERLIIA; Peptide with targeting and/or antimicrobial activity),,,G B,,,,,A. naeslundii; also recorded: F. nucleatum; also recorded: P. gingivalis; also recorded: S. mutans; also recorded: T. denticola,F. nucleatum (H),S. mutans (I),P. gingivalis (R),,,,,,,
VLPFPAIPLSRRRACVAAPRPRSRQRAS [PF-168],"T. rubrum, 50 μM",,G B M,,S. epidermidis and M. luteus and E. coli and C. albicans and MRSA and C. jeikeium and C. jejuni,,,,,,,P. aeruginosa (H),MRSA (I),"A. niger, 50 μM","MRSA , 50 μM",,,
WSRVPGHSDTGWKVWHRW-NH2 [PF-547],"T. rubrum, 25 μM",B. subtilis (I),G B M,"B. subtilis, 25 μM",,S. epidermidis (R),,,,,,,MRSA (M),,,"S. mutans, 12.5 μM",E. faecalis (R),S. epidermidis and E. coli and P. aeruginosa and C. albicans and MRSA and S. pneumoniae and E. faecalis
